The subject of data set [1] is CEM (T-lymphoblastic leukaemia). In words: MTT cytotoxic test, CEM. The conditions noted are these: CEM cells, mean (x), read-out: Cytotoxic and antiproliferation activity MTT test (IC50, μM) CEM x. Format: cell-based. The source says:
(§1) In order to evaluate antitumour activity of the new prepared substances in vitro, we used the MTT cytotoxic test on cell lines derived from normal tissues and tumours. In particular, they included the NIH 3T3 (mouse fibroblasts), K562 (human myeloid leukaemia), K562-tax (human myeloid leukaemia resistant to taxol and the overexpressing protein of the PgP multiple drug resistance), CEM (T-lymphoblastic leukaemia), CEM-DNR-bulk (T-lymphoblastic leukaemia resistant to doxorubicine, lacking the expression of target gene for inhibitors of topoisomerase II alpha) and the line A549 (human lung adenocarcinoma).
(Tetrazolium dyes change colour on reduction, which living cells bring about.)

Data set [2] concerns CEM-DNR-bulk (T-lymphoblastic leukaemia resistant to doxorubicine). In words: MTT cytotoxic test, CEM-DNR-bulk. Conditions: CEM-DNR-BULK cells, mean (x); read-out: Cytotoxic and antiproliferation activity MTT test (IC50, μM) CEM-DNR-BULK x. Format: cell-based.
Text: as §1

The subject of data set [3] is K562 (human myeloid leukaemia). In words: MTT cytotoxic test, K562. Format: cell-based. Conditions: K 562 cells, mean (x), read-out: Cytotoxic and antiproliferation activity MTT test (IC50, μM) K 562 x.
Text: as §1

In data set [4] the test system is K562-tax (human myeloid leukaemia resistant to taxol). In words: MTT cytotoxic test, K562-tax. It is filed as cell-based. The conditions noted are these: K562-TAX cells, mean (x), read-out: Cytotoxic and antiproliferation activity MTT test (IC50, μM) K562-TAX x.
Text: as §1

The subject of data set [5] is A549 (human lung adenocarcinoma). The data set is described as follows: MTT cytotoxic test, A549. Format: cell-based. Conditions: A 549 cells, mean (x), read-out: Cytotoxic and antiproliferation activity MTT test (IC50, μM) A 549 x.
Text: as §1

Data set [6] concerns concavaline A-stimulated human lymphocytes. In words: MTT test, inhibition of lymphocyte activation with ConA. Format: cell-based. Conditions: 5 μg/ml, mean (x). The source says:
The proliferation response of isolated lymphocytes to polyclonal mitogens belongs to the most important parameters of specific cell immunity. Most of the human lymphocytes occur in quiet state. Antigens or polyclonal mitogens, however, are capable of activating lymphatic cells, which is accompanied by dramatic changes of their cell metabolism (enhanced mitochondrial activity, protein and nucleic acid synthesis, formation of blastic cells and proliferations). Substances having the capability to suppress such processes show immunosuppressive activity in clinical conditions and, therefore, these tests can be used for screening tests of immunosuppressive activity in vitro. On this account, we use the above-mentioned MTT test, which evaluates both the survival and the proliferation activity of quiet vs. polyclonal-mitogen (concavaline A, 5 μg/ml)-stimulated human lymphocytes to screen the immunosuppressive activity of new substances (Jegorov et al., J. Mass. Spetrom., 2006).

Read-outs that look alike come from different tables or passages of the source.

`O=c1c(O)c(-c2ccc(N3CCN(CCO)CC3)c([N+](=O)[O-])c2)[nH]c2ccccc12`: the melting point – broadly, the temperature, or range, at which the solid turns liquid – lay within 218 to 221 °C.

`C/C=C/CCSc1ccc(-c2[nH]c3ccccc3c(=O)c2O)cc1[N+](=O)[O-]`: the IC50 was determined as 2.1 µM in data set [1]; 3.2 µM in data set [2]; 9.3 µM in data set [3]; 5.2 µM in data set [4]; 4.3 µM in data set [5].

The molecule `O=c1c(O)c(-c2ccc3c(c2)ncn3CC(F)(F)F)[nH]c2ccccc12` yielded an IC50 in data set [6] of 4.2 µM.

In the case of `O=c1c(O)c(-c2ccc(Cl)c([N+](=O)[O-])c2)[nH]c2ccccc12` [Cl, 2-(4-Chlorine-3-nitrophenyl)-3-hydroxyquinoline-4(1H)-one], the IC50 is 2.6 µM in data set [1]; 3.5 µM in data set [2]; 2.3 µM in data set [3]; 3.2 µM in data set [4]; 4.2 µM in data set [5].

On to `O=c1c(O)c(-c2ccc(N3CCN(CCOCCO)CC3)c([N+](=O)[O-])c2)[nH]c2ccccc12` [Example 5, 3-Hydroxy-2-(4-{4-[2-(2-hydroxyethoxy)ethyl]piperazine-1-yl}-3-nitrophenyl)quinoline-4(1H)-one], for which the melting point lay in the range of 203 to 204 °C.

Turning to `CCNc1ccc(-c2[nH]c3ccccc3c(=O)c2O)cc1[N+](=O)[O-]` [Example 6, 2-[4-(Ethylamino)-3-nitrophenyl]-3-hydroxyquinoline-4(1H)-one], the melting point fell in the range of 282 to 285 °C.

Take `O=c1c(O)c(-c2ccc(Sc3ccccc3)c([N+](=O)[O-])c2)[nH]c2ccccc12` [Example 7, 3-Hydroxy-2-[3-nitro-4-(phenylthio)phenyl]quinoline-4(1H)-one]: the melting point was in the range of 322 to 324 °C.

With `O=c1c(O)c(-c2ccc(-n3ccnc3)c([N+](=O)[O-])c2)[nH]c2ccccc12` [Example 8, 3-Hydroxy-2-[4-(1H-imidazole-1-yl)-3-nitrophenyl]quinoline-4(1H)-one], the melting point lay in the range of 278 to 280 °C.

In data set [6], `O=c1c(O)c(-c2ccc(F)c([N+](=O)[O-])c2)[nH]c2ccccc12` [F] registered an IC50 of 3.8 µM.

Regarding `CCN(CC)CCn1cnc2cc(-c3[nH]c4ccccc4c(=O)c3O)ccc21` [—(CH2)2N(C2H5)2], the IC50 in data set [1] came to 5.2 µM; in data set [2] it was 71.2 µM; in data set [3] it was 2.1 µM; in data set [4], 6.5 µM; in data set [5], 3.5 µM.

As to `O=c1c(O)c(-c2ccc3c(c2)ncn3CCSCCO)[nH]c2ccccc12` [—(CH2)2S(CH2)2OH], the IC50 came out at 0.8 µM in data set [1]; 2.2 µM in data set [2]; 3.1 µM in data set [3]; 4.5 µM in data set [4]; 3.6 µM in data set [5].

Take `CCCCCCn1cnc2cc(-c3[nH]c4ccccc4c(=O)c3O)ccc21` [—(CH2)5CH3]: the IC50 stood at 2.8 µM in data set [1]; 54 µM in data set [2]; 8.5 µM in data set [3]; 35 µM in data set [4]; 44.3 µM in data set [5].

In the case of `O=CNCCn1cnc2cc(-c3[nH]c4ccccc4c(=O)c3O)ccc21` [—CH2CH2NHCHO], the IC50 in data set [6] is 1.1 µM.

Consider `CCCN(CCC)c1ccc(-c2[nH]c3ccccc3c(=O)c2O)cc1[N+](=O)[O-]` [—N(CH2CH2CH3)2], for which the IC50 in data set [1] was 0.7 µM; in data set [2] it was 2.2 µM; in data set [3], 0.6 µM; in data set [4] it was 1.2 µM; in data set [5] it was 1.1 µM; in data set [6], 0.9 µM.

Consider `O=c1c(O)c(-c2ccc(N(CCO)CCO)c([N+](=O)[O-])c2)[nH]c2ccccc12` [—N(CH2CH2OH)2], for which the IC50 is 0.3 µM in data set [1]; 143 µM in data set [2]; 187 µM in data set [3]; 198 µM in data set [4]; 224 µM in data set [5]; 0.9 µM in data set [6].

Take `CCN(C)c1ccc(-c2[nH]c3ccccc3c(=O)c2O)cc1[N+](=O)[O-]` [—N(CH3)(CH2CH3)]: the IC50 worked out at 1.7 µM in data set [1]; 129 µM in data set [2]; 0.7 µM in data set [3]; 163 µM in data set [4]; 66.5 µM in data set [5]; 5.7 µM in data set [6].

With `O=c1c(O)c(-c2ccc(NCCO)c([N+](=O)[O-])c2)[nH]c2ccccc12` [—NH(CH2)2OH], the IC50 in data set [1] was determined as 2.7 µM; in data set [2], 98.8 µM; in data set [3], 7.3 µM; in data set [4], 44.9 µM; in data set [5] it was 46.8 µM; in data set [6], 3.8 µM.

For the molecule `O=c1c(O)c(-c2ccc(NCCCO)c([N+](=O)[O-])c2)[nH]c2ccccc12` [—NH(CH2)3OH, 3-Hydroxy-2-{4-[(3-hydroxypropyl)amino]-3-nitrophenyl}quinoline-4(1H)-one], the melting point was in the range of 233 to 236 °C. In addition, the IC50 in data set [1] (Homo sapiens, CCRF-CEM) was 1.4 µM. In addition, the IC50 in data set [2] was found to be 46.3 µM. Further, the IC50 in data set [3] (Homo sapiens, K562) was determined as 6.2 µM. For the same molecule, the IC50 in data set [4] (Homo sapiens) amounted to 12.9 µM. In addition, the IC50 in data set [5] (Homo sapiens, A549) amounted to 12.4 µM. Moreover, the IC50 in data set [6] (Lymphocyte) was 0.8 µM.

Turning to `O=c1c(O)c(-c2ccc(NCCCCO)c([N+](=O)[O-])c2)[nH]c2ccccc12` [—NH(CH2)4OH], the IC50 in data set [1] is 0.7 µM; in data set [2] it was 15.1 µM; in data set [3], 1.8 µM; in data set [4], 8.6 µM; in data set [5], 5.7 µM; in data set [6], 1.1 µM.

As for `O=c1c(O)c(-c2ccc(NCCCCCO)c([N+](=O)[O-])c2)[nH]c2ccccc12` [—NH(CH2)5OH], the IC50 in data set [1] is 1 µM; in data set [2], 10.8 µM; in data set [3], 2.8 µM; in data set [4], 5.7 µM; in data set [5], 5.3 µM; in data set [6], 0.6 µM.

For the molecule `CC(C)Nc1ccc(-c2[nH]c3ccccc3c(=O)c2O)cc1[N+](=O)[O-]` [—NHCH(CH3)2], the IC50 in data set [1] was 1.6 µM; in data set [2], 6.8 µM; in data set [3] it was 2.1 µM; in data set [4], 3 µM; in data set [5], 2.8 µM; in data set [6], 4.8 µM.

These data come from patent US8299092B2, “Derivatives of 2-phenyl-3-hydroxyquinoline-4(1H)-one and methods of their preparation and utilization” (Univerzita Palackeho, priority 2006, dated 2012).
